This note sets out measurements from patent publication US20230092163A1, “COMPOUNDS AND COMPOSITIONS FOR TREATING CONDITIONS ASSOCIATED WITH STING ACTIVITY” (IFM Due, Inc., priority 2019, published 2023).

Each structure is given as a SMILES string.

In one experiment the target is STING (Homo sapiens, UniProt Q86WV6, G230A/H232R/R293Q/R71H). The experiment can be described thus: STING reporter assay: THP1-Dual KO-IFNAR2 cells stimulated with 2′3′cGAMP, luciferase reporter activity. The format is cell-based. Conditions: 15 μM 2′3′cGAMP, 24h, class symbols. As for the experimental part: STING pathway activation by the compounds described herein were measured using THP1-Dual™ cells (KO-IFNAR2).
Chain of STING (Q86WV6 whole entry R71H/G230A/H232R/R293Q): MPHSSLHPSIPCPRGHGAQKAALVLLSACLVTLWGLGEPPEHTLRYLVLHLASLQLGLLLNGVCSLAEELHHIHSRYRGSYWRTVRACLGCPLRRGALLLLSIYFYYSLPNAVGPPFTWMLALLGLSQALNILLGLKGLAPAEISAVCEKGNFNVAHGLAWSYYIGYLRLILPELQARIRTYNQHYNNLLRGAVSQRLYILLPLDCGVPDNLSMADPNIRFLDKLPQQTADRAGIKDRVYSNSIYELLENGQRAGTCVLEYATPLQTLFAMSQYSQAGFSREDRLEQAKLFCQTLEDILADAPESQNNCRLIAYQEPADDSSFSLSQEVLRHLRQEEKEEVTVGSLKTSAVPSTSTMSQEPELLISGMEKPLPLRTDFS
THP1-Dual™ KO-IFNAR2 Cells (obtained from invivogen) were maintained in RPMI, 10% FCS, 5 ml P/S, 2 mM L-glut, 10 mM Hepes, and 1 mM sodium pyruvate. Compounds were spotted in empty 384 well tissue culture plates (Greiner 781182) by Echo for a final concentration of 0.0017-100 μM. Cells were plated into the TC plates at 40 μL per well, 2×10E6 cells/mL. For activation with STING ligand, 2′3′cGAMP (MW 718.38, obtained from Invivogen), was prepared in Optimem media.
The following solutions were prepared for each 1×384 plate: • Solution A: 2 mL Optimem with one of the following stimuli: • 60 uL of 10 mM 2′3′cGAMP ->150 μM stock • Solution B: 2 mL Optimem with 60 μL Lipofectamine 2000->Incubate 5 min at RT
2 mL of solution A and 2 ml Solution B was mixed and incubated for 20 min at room temperature (RT). 20 uL of transfection solution (A+B) was added on top of the plated cells, with a final 2′3′cGAMP concentration of 15 μM. The plates were then centrifuged immediately at 340 g for 1 minute, after which they were incubated at 37° C., 5% CO2, >98% humidity for 24h. Luciferase reporter activity was then measured. EC50 values were calculated by using standard methods known in the art.
Luciferase reporter assay: 10 μL of supernatant from the assay was transferred to white 384-plate with flat bottom and squared wells. One pouch of QUANTI-Luc™ Plus was dissolved in 25 mL of water. 100 μL of QLC Stabilizer per 25 mL of QUANTI-Luc™ Plus solution was added. 50 μL of QUANTI-Luc™ Plus/QLC solution per well is then added. Luminescence is measured on a Platereader (e.g., Spectramax I3X (Molecular Devices GF3637001)).
Luciferase reporter activity was then measured. EC50 values were calculated by using standard methods known in the art.
Regarding `O=C(Nc1ccc(S(F)(F)(F)(F)F)cc1)Nc1ccc2[nH]ccc2c1` [Compound 291], the concentration for a half-maximal effect (EC50) fell in the range of 1 to 5 µM.

Compound `c1ccc(-c2ccc(Nc3ccc4cc[nH]c4c3)nc2)cc1` [Compound 424, N-(5-phenylpyridin-2-yl)-1H-indol-6-amine] showed an EC50 of 1 to 5 µM.

`FC(F)(F)c1c(Cl)ccc2nc(Nc3ccc4cc[nH]c4c3)ccc12` [Compound 553] displayed an EC50 of 0.2 to 1 µM.

The compound `O=C(NCc1cc(Cl)cc(C(F)(F)F)c1)Nc1cnc2cc[nH]c2c1` [Compound 507] displayed a concentration for a half-maximal effect (EC50) of 1 to 5 µM.

Compound `N#Cc1c[nH]c2cc(NC(=O)Nc3ccc(C(F)(F)F)cc3)cc(F)c12` [Compound 528] gave an EC50 of 1 to 5 µM.

`O=C(Nc1ccc2[nH]ccc2c1)Nc1cc(C2CCC2)no1` [Compound 302]: the concentration for a half-maximal effect (EC50) was 5 to 100 µM.

Turning to `O=C(Nc1ccc(C(F)(F)F)cc1)Nc1cc(Cl)c2cc[nH]c2c1` [Compound 251], the EC50 was in the range of 0.04 to 0.2 µM.

Take `O=C(Nc1cc(F)cc(C(F)(F)F)c1)Nc1ccc2cc[nH]c2c1` [Compound 252]: the EC50 is 0.04 to 0.2 µM.

Compound `FC(F)(F)c1ccc(Nc2ccc3cc[nH]c3c2)nc1Cl` [Compound 591] came in with an EC50 of 1 to 5 µM.

Compound `O=C(Nc1cccc(OC(F)F)c1)Nc1ccc2[nH]ccc2c1` [Compound 343] came in with an EC50 of 5 to 100 µM.

With `C[C@@H](NC(=O)Nc1cc(Cl)c2cc[nH]c2c1)c1cc(Cl)cc(C(F)(F)F)c1` [Compound 521, (R)-1-(4-chloro-1H-indol-6-yl)-3-(1-(3-chloro-5-(trifluoromethyl)phenyl)ethyl)urea], the EC50 lay in the range of 1 to 5 µM.

For the compound `C1=C(c2ccc3ccc(Nc4ccc5cc[nH]c5c4)nc3c2)CCCC1` [Compound 606, 7-(cyclohex-1-en-1-yl)-N-(1H-indol-6-yl)quinolin-2-amine], the EC50 lay in the range of 1 to 5 µM.

`N#Cc1ccc(OC2CCC(NC(=O)Nc3ccc4cc[nH]c4c3)CC2)cc1` (stereo not drawn) [Compound 195] came in with an EC50 of 1 to 5 µM.

As to `O=C(NCCOc1ccccc1C(F)(F)F)Nc1ccc2cc[nH]c2c1` [Compound 524], the EC50 is 1 to 5 µM.

For the compound `O=C(NCCc1ncc(C(F)(F)F)cc1Cl)Nc1ccc2cc[nH]c2c1` [Compound 201], the EC50 lay within 1 to 5 µM.

Compound `O=C(Nc1ccc(C(F)(F)F)cc1)Nc1ccc2c3c([nH]c2c1)CCCC3` [Compound 263] had an EC50 of 5 to 100 µM.

Compound `CC(C)(C)OC(=O)N1Cc2cnc(Nc3ccc4cc[nH]c4c3)nc2C1` [Compound 418, tert-butyl 2-((1H-indol-6-yl)amino)-5H-pyrrolo[3,4-d]pyrimidine-6(7H)-carboxylate] came in with a concentration giving a half-maximal response (EC50) of 5 to 100 µM.

As for `FC(F)(F)c1cccc(Nc2ccc3cc[nH]c3c2)n1` [Compound 609], the EC50 was 5 to 100 µM.

The compound `Cc1ccc2nc(Nc3ccc4cc[nH]c4c3)ccc2c1C(F)(F)F` [Compound 549] returned an EC50 of 0.2 to 1 µM.

The compound `FC(F)(F)Oc1ccc2c(Cl)cc(Nc3ccc4cc[nH]c4c3)nc2c1` [Compound 576, 4-chloro-N-(1H-indol-6-yl)-7-(trifluoromethoxy)quinolin-2-amine] showed an EC50 of 1 to 5 µM.

As to `c1cnc2nc(Nc3ccc4cc[nH]c4c3)ccc2c1` [Compound 573, N-(1H-indol-6-yl)-1,8-naphthyridin-2-amine], the EC50 was in the range of 5 to 100 µM.

Consider `O=C(Nc1ccc2[nH]ccc2c1)Nc1cc2cccc(C(F)(F)F)n2n1` [Compound 309], for which the EC50 lay within 5 to 100 µM.

As for `O=C(NCCN1CCC(Cc2ccccc2)CC1)Nc1ccc2cc[nH]c2c1` [Compound 174], the EC50 lay in the range of 5 to 100 µM.

The same experiment, now with this note: 15 μM 2′3′cGAMP, 24h, numeric bounds.
In turn, `O=C(NCCc1ccccc1Br)Nc1ccc2cc[nH]c2c1` [Compound 184] gave an EC50 greater than 30 µM.

Take `c1cc2ccc(Nc3ccc4c(n3)CCC4)nc2[nH]1` [Compound 566]: the EC50 is greater than 30 µM.

The compound `O=C(Nc1ccc2[nH]ccc2c1)Nc1ccc2[nH]ccc2c1` [Compound 283] yielded a concentration for a half-maximal effect (EC50) greater than 30 µM.

In the case of `c1cnc(Nc2ccc3cc[nH]c3c2)c(C2CC2)c1` [Compound 394, N-(3-cyclopropylpyridin-2-yl)-1H-indol-6-amine], the EC50 is greater than 30 µM.

`Clc1ccc2ccc(Nc3ccc4cc[nH]c4c3)nc2c1Cl` [Compound 425, 7,8-dichloro-N-(1H-indol-6-yl)quinolin-2-amine] displayed an EC50 greater than 30 µM.

In turn, `Cc1ccccc1CCNC(=O)Nc1ccc2[nH]ccc2c1` [Compound 324] gave an EC50 greater than 30 µM.

Turning to `O=C(Nc1ccc2[nH]ccc2c1)N[C@@H]1C[C@H]1c1ccccc1` [Compound 326], the EC50 was greater than 30 µM.

Regarding `O=C(Nc1ccc2[nH]ccc2c1)NC1Cc2ccccc2C1` [Compound 357], the half-maximal effective concentration (EC50) was greater than 30 µM.

For `O=C(Nc1ccc2c(F)c[nH]c2c1)Nc1ccc(N2CC(F)(F)C2)cn1` [Compound 515], the EC50 was greater than 30 µM.

`N#Cc1ccc(CNC(=O)Nc2ccc3[nH]ccc3c2)c(C(F)(F)F)c1` [Compound 276] gave an EC50 greater than 30 µM.

Take `FC(F)(F)COc1ccnc(Nc2ccc3cc[nH]c3c2)n1` [Compound 410, N-(4-(2,2,2-trifluoroethoxy)pyrimidin-2-yl)-1H-indol-6-amine]: the EC50 was greater than 30 µM.

Compound `Cc1ccc(CNC(=O)Nc2ccc3[nH]ccc3c2)cc1C` [Compound 337] registered an EC50 greater than 30 µM.

Compound `CCCCCCCCCCCCCCNC(=O)Nc1ccc2[nH]ccc2c1` [Compound 351] had an EC50 greater than 30 µM.

`Cc1c(Nc2ccc3ccc(C(F)(F)F)cc3n2)ccc2cc[nH]c12` [Compound 557] gave an EC50 greater than 30 µM.

`Fc1ccc2ccc(Nc3ccc4cc[nH]c4c3)nc2c1` [Compound 559, 7-fluoro-N-(1H-indol-6-yl)quinolin-2-amine] came in with an EC50 greater than 30 µM.

With `Cn1cc(NC(=O)Nc2ccc3[nH]ccc3c2)cn1` [Compound 306], the EC50 was greater than 30 µM.

The compound `O=C(Nc1ccc(N2CC(F)(F)C2)nc1)Nc1ccc2c(F)c[nH]c2c1` [Compound 517] registered an EC50 greater than 30 µM.

`CC(N)c1ccnc(Nc2ccc3cc[nH]c3c2)c1` (stereo not drawn) [Compound 430, N-(4-(1-aminoethyl)pyridin-2-yl)-1H-indol-6-amine] came in with an EC50 greater than 30 µM.

Compound `O=C(NCCc1ccc(Br)cc1)Nc1ccc2[nH]ccc2c1` [Compound 353] gave an EC50 greater than 30 µM.

For `N#Cc1c[nH]c2cc(NC(=O)Nc3cnc(N4CC(F)(F)C4)c(F)c3)ccc12` [Compound 530], the EC50 was greater than 30 µM.

Take `CCn1cc(CNC(=O)Nc2ccc3[nH]ccc3c2)cn1` [Compound 301]: the EC50 was greater than 30 µM.

`O=C(Nc1ccc2cc[nH]c2c1)Nc1ccno1` [Compound 191] gave an EC50 greater than 30 µM.

The compound `O=C(Nc1ccc(F)c(F)c1)Nc1ccc2[nH]ccc2c1` [Compound 342] gave an EC50 greater than 30 µM.

`CC(C)(C)OC(=O)N1CCc2nc(Nc3ccc4cc[nH]c4c3)ncc2C1` [Compound 419, tert-butyl 2-((1H-indol-6-yl)amino)-7,8-dihydropyrido[4,3-d]pyrimidine-6(5H)-carboxylate] gave an EC50 greater than 30 µM.

`CCS(=O)(=O)c1ccc(CNC(=O)Nc2ccc3cc[nH]c3c2)cn1` [Compound 179] gave an EC50 greater than 30 µM.

As to `Cc1nc(Nc2ccc3cc[nH]c3c2)ccc1F` [Compound 584, N-(5-fluoro-6-methylpyridin-2-yl)-1H-indol-6-amine], the EC50 is greater than 30 µM.

`O=C(NCCc1ccccc1)Nc1ccc2cc[nH]c2c1` [Compound 187] displayed an EC50 greater than 30 µM.

In turn, `O=C(Nc1cc(F)c(N2CCC(F)(F)CC2)c(F)c1)Nc1ccc2[nH]ccc2c1` [Compound 293] showed an EC50 greater than 30 µM.
